Data reported in patent publication US12358915B2, “METTL3 inhibitory compounds” (STORM THERAPEUTICS LTD., priority 2019, dated 2025).
Read-outs that look alike come from different tables or passages of the source.

Legend:
[1] = biological target: T1, METTL3/14 (Homo sapiens, UniProt Q86U44); test: METTL3/14 methyltransferase assay (METTL3_14 RFMS, RapidFire mass spectrometry); type: biochemical; settings: 5 nM METTL3/14, 0.2 μM RNA substrate, 0.5 μM SAM, lower limit of the assay IC50=5 nM, read-out: METTL3_14 RFMS IC50;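 note: recombinant His-tagged METTL3 with FLAG-tagged METTL14 from baculovirus, SAH product quantified by mass spectrometry against isotope-labelled internal standards, 60 min at room temperature, scaled between no-RNA and DMSO-only wells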
T1 construct: The enzyme used was full-length his-tagged METTL3; His; made in house
T1 sequence (Q86U44 whole entry): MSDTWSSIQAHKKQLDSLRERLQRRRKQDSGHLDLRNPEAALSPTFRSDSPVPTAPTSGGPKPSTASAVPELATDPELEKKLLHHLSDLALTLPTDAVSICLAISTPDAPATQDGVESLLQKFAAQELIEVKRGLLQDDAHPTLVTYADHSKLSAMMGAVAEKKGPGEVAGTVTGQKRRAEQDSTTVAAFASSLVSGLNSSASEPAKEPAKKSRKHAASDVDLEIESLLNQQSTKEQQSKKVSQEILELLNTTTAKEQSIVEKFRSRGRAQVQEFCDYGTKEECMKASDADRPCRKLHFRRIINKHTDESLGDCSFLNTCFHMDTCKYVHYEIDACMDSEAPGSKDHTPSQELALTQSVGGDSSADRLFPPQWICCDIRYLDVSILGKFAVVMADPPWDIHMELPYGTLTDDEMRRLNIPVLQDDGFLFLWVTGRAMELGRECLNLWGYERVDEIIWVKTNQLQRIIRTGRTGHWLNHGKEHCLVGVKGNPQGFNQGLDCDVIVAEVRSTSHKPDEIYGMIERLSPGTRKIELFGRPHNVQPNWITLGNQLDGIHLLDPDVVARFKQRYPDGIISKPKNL
T1 sequence (Q9HCE5 whole entry partner): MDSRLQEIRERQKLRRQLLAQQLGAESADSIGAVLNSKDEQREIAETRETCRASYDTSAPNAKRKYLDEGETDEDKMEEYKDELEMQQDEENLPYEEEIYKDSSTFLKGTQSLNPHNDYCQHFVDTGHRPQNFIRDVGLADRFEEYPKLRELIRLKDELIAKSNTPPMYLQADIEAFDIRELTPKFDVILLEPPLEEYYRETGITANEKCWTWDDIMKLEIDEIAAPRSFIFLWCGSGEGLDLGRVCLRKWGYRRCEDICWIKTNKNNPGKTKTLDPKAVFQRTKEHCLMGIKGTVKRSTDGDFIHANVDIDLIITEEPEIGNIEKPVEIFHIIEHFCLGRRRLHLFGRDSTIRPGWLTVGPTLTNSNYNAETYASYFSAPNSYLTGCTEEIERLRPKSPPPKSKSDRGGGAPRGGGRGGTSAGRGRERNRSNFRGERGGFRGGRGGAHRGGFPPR

[2] = tested on: MOLM-13 cells; test: MOLM13 CTG - analysis of cell proliferation (Cell Titre Glo); type: cell-based; settings: Homo sapiens, geometric mean, read-out: CTG MOLM13 cells IC50 GEOMEAN

`O=C(NCc1cn2cc(CNCC3CCC3)ccc2n1)c1cccc2[nH]ncc12` [Example 322, N-[[6-[(cyclobutylmethylamino)methyl]imidazo[1,2-a]pyridin-2-yl]methyl]-1H-indazole-4-carboxamide] was tested. Which IC50 ([1]; Compounds 266-351) did it give?
Its IC50 is 32.5 nM.

What about the IC50 [2] of the same molecule?
Its IC50 is 11 µM.

`O=C(NCc1cn2cc(C3COCCN3)ccc2n1)c1cc(=O)n2ccccc2n1` (stereo not shown) [Example 263, N-{[6-(morpholin-3-yl)imidazo[1,2-a]pyridin-2-yl]methyl}-4-oxo-4H-pyrido[1,2-a]pyrimidine-2-carboxamide] was tested. Which IC50 ([1]; Compounds 63-265) did it give?
Its IC50 is 2730 nM.

And the IC50 [2]?
Its IC50 is 13.8 µM.

How did the IC50 ([1]; Compounds 266-351) turn out when `O=C(NCc1cn2cc(CNCCC3CCC3)ccc2n1)c1cc(=O)n2ccccc2n1` [Compound 286, N-[[6-[(2-cyclobutylethylamino)methyl]imidazo[1,2-a]pyridin-2-yl]methyl]-4-oxo-pyrido[1,2-a]pyrimidine-2-carboxamide] was run?
Its IC50 is 19.3 nM.

What about the IC50 [2] of the same molecule?
The IC50 was 12.3 µM.

For `CC(NCC1CCCCC1)c1ccc2nc(Cn3cc(-c4cccc5[nH]ncc45)nn3)cn2c1` (stereo not shown) [Example 255], which IC50 ([1]; Compounds 63-265) is on record?
The IC50 was 25.8 nM.

What about the IC50 [2] of the same molecule?
The IC50 was 9.61 µM.

Which IC50 ([1]; Compounds 266-351) does the source give for `CCC(C)CNCc1ccc2nc(CNC(=O)c3cc(=O)n4ccccc4n3)cn2c1` (stereo not shown) [Compound 285, N-[[6-[(2-methylbutylamino)methyl]imidazo[1,2-a]pyridin-2-yl]methyl]-4-oxo-pyrido[1,2-a]pyrimidine-2-carboxamide] here?
Its IC50 is 15 nM.

What about the IC50 [2] of the same molecule?
Its IC50 is 7.37 µM.

Which IC50 ([1]; Compounds 63-265) does the source give for `CC(C)(C)C(C)(C)NCc1ccc2nc(CNC(=O)c3cc(=O)n4ccccc4n3)cn2c1` [Compound 195, 4-oxo-N-[(6-{[(2,3,3-trimethylbutan-2-yl)amino]methyl}imidazo [1,2-a]pyridin-2-yl)methyl]-4H-pyrido[1,2-a]pyrimidine-2-carboxamide] here?
Its IC50 is 32.4 nM.

And the IC50 [2]?
Its IC50 is 9.77 µM.

Which results are given for `OC1(CNCc2ccc3nc(Cn4cc(-c5cccc6[nH]ncc56)nn4)cn3c2)CCCCC1` [Example 328, 1-[[[2-[[4-(1H-indazol-4-yl)triazol-1-yl]methyl]imidazo[1,2-a]pyridin-6-yl]methylamino]methyl]cyclohexanol]?
IC50 ([1]; Compounds 266-351): 8.84 nM; IC50 [2]: 3.25 µM

Which IC50 ([1]; Compounds 266-351) does the source give for `O=C(NCc1cn2cc(CNC3CC34CCC4)ccc2n1)c1cc(=O)n2ccccc2n1` (stereo not shown) [Compound 280, 4-oxo-N-[[6-[(spiro[2.3]hexan-2-ylamino)methyl]imidazo[1,2-a]pyridin-2-yl]methyl]pyrido[1,2-a]pyrimidine-2-carboxamide] here?
The IC50 was 13.1 nM.

And the IC50 [2]?
The IC50 was 4.5 µM.

How did the IC50 ([1]; Compounds 63-265) turn out when `CC(NCc1ccc2nc(CNC(=O)c3cc(=O)n4ccccc4n3)cn2c1)C1CCCCC1` (stereo not shown) [Compound 203, N-[(6-{[(1-cyclohexylethyl)amino]methyl}imidazo[1,2-a]pyridin-2-yl)methyl]-4-oxo-4H-pyrido [1,2-a]pyrimidine-2-carboxamide] was run?
Its IC50 is 32 nM.

What about the IC50 [2] of the same molecule?
The IC50 was 8.74 µM.

`O=C(NCc1cn2cc(CNCCC3CC3)ccc2n1)c1cc(=O)c2ccccc2o1` [Compound 218] was tested. Which IC50 ([1]; Compounds 63-265) did it give?
Its IC50 is 26.4 nM.

And the IC50 [2]?
The IC50 was 4.71 µM.

`O=C(NCc1cn2cc(CNC3(c4ccccc4)COC3)ccc2n1)c1cc(=O)n2ccccc2n1` [Compound 89, 4-oxo-N-[(6-{[(3-phenyloxetan-3-yl)amino]methyl}imidazo[1,2-a]pyridin-2-yl)methyl]-4H-pyrido[1,2-a]pyrimidine-2-carboxamide] was tested. Which IC50 ([1]; Compounds 63-265) did it give?
Its IC50 is 1860 nM.

And the IC50 [2]?
Its IC50 is 13.1 µM.

How did the IC50 ([1]; Compounds 63-265) turn out when `O=C(NCc1cn2cc(CNC3CCC3)ccc2n1)c1cc(=O)n2ccccc2n1` [Compound 126, N-({6-[(cyclobutylamino)methyl]imidazo [1,2-a]pyridin-2-yl}methyl)-4-oxo-4H-pyrido [1,2-a]pyrimidine-2-carboxamide] was run?
The IC50 was 79.8 nM.

And the IC50 [2]?
The IC50 was at least 30 µM.

Which IC50 ([1]; Compounds 63-265) does the source give for `O=C(NCc1cn2cc(CNCCC3CC3)ccc2n1)c1cc(=O)n2ccccc2n1` [Compound 103, N-[(6-{[(2-cyclopropylethyl)amino]methyl}imidazo[1,2-a]pyridin-2-yl)methyl]-4-oxo-4H-pyrido[1,2-a]pyrimidine-2-carboxamide] here?
The IC50 was 13.7 nM.

What about the IC50 [2] of the same molecule?
The IC50 was 6.8 µM.

What does the source list for `CC1CC(CNCc2ccc3nc(CNC(=O)c4cc(=O)n5ccccc5n4)cn3c2)C1` (stereo not shown) [Compound 290, N-[[6-[[(3-methylcyclobutyl)methylamino]methyl]imidazo[1,2-a]pyridin-2-yl]methyl]-4-oxo-pyrido[1,2-a]pyrimidine-2-carboxamide]?
IC50 ([1]; Compounds 266-351): 18 nM; IC50 [2]: 6.98 µM

Which IC50 ([1]; Compounds 266-351) does the source give for `OC1(CNCc2ccc3nc(Cn4cc(-c5cc(Cl)cc6[nH]ncc56)nn4)cn3c2)CCC1` [Example 303, 1-[[[2-[[4-(6-chloro-1H-indazol-4-yl)triazol-1-yl]methyl]imidazo[1,2-a]pyridin-6-yl]methylamino]methyl]cyclobutanol] here?
The IC50 was 5.92 nM.

And the IC50 [2]?
The IC50 was 1.44 µM.

`O=C(NCc1cn2cc(CNCC3(O)CCCCC3)ccc2n1)c1cc(=O)n2ccccc2n1` [Compound 209, N-{[6-({[(1-hydroxycyclohexyl)methyl]amino}methyl)imidazo [1,2-a]pyridin-2-yl]methyl}-4-oxo-4H-pyrido [1,2-a]pyrimidine-2-carboxamide] was tested. Which IC50 ([1]; Compounds 63-265) did it give?
Its IC50 is 10 nM.

And the IC50 [2]?
Its IC50 is 6.58 µM.

`c1cc2nc(Cn3cc(-c4cc(N5CCOCC5)cc5[nH]ncc45)nn3)cn2cc1CNCC1CCC1` [Example 311, N-(cyclobutylmethyl)-1-[2-[[4-(6-morpholino-1H-indazol-4-yl)triazol-1-yl]methyl]imidazo[1,2-a]pyridin-6-yl]methanamine] was tested. Which IC50 ([1]; Compounds 266-351) did it give?
Its IC50 is 19 nM.

What about the IC50 [2] of the same molecule?
Its IC50 is 3.68 µM.

`O=C(NCc1cn2cc(CCNC3CCCCC3)ccc2n1)c1cc(=O)n2ccccc2n1` [Compound 236, N-({6-[2-(cyclohexylamino)ethyl]imidazo[1,2-a]pyridin-2-yl}methyl)-4-oxo-4H-pyrido[1,2-a]pyrimidine-2-carboxamide] was tested. Which IC50 ([1]; Compounds 63-265) did it give?
The IC50 was 28.7 nM.

What about the IC50 [2] of the same molecule?
Its IC50 is 11.8 µM.

What does the source list for `O=C1CC(c2ccc3nc(CNC(=O)c4cc(=O)n5ccccc5n4)cn3c2)NC(C2CCCCC2)C1` (mixture of isomers) [Example 334, N-[[6-(6-cyclohexyl-4-oxo-2-piperidyl)imidazo[1,2-a]pyridin-2-yl]methyl]-4-oxo-pyrido[1,2-a]pyrimidine-2-carboxamide]?
IC50 ([1]; Compounds 266-351): 122 nM; IC50 [2]: 17.9 µM

What does the source list for `Fc1cc(-c2cn(Cc3cn4cc(CNCC5CCC5)ccc4n3)nn2)c2cn[nH]c2c1` [Example 318, N-(cyclobutylmethyl)-1-[2-[[4-(6-fluoro-1H-indazol-4-yl)triazol-1-yl]methyl]imidazo[1,2-a]pyridin-6-yl]methanamine]?
IC50 ([1]; Compounds 266-351): 5.67 nM; IC50 [2]: 1.18 µM

With `O=C(NCc1cn2cc(CCNCc3ccccc3)ccc2n1)c1cc(=O)n2ccccc2n1` [Compound 235, N-({6-[2-(benzylamino)ethyl]imidazo[1,2-a]pyridin-2-yl}methyl)-4-oxo-4H-pyrido[1,2-a]pyrimidine-2-carboxamide] as the molecule, how does the IC50 ([1]; Compounds 63-265) read?
Its IC50 is 111 nM.

And the IC50 [2]?
Its IC50 is at least 30 µM.

With `OC1(CNCc2ccc3nc(Cn4cc(-c5cc(Br)cc6[nH]ncc56)nn4)cn3c2)CCCCC1` [Example 294, 1-[[[2-[[4-(6-bromo-1H-indazol-4-yl)triazol-1-yl]methyl]imidazo[1,2-a]pyridin-6-yl]methylamino]methyl]cyclohexanol] as the molecule, how does the IC50 ([1]; Compounds 266-351) read?
Its IC50 is 5.8 nM.

What about the IC50 [2] of the same molecule?
Its IC50 is 0.998 µM.

How did the IC50 ([1]; Compounds 63-265) turn out when `CC1(C)CCN(Cc2ccc3nc(CNC(=O)c4cc(=O)n5ccccc5n4)cn3c2)CC1` [Compound 193, N-({6-[(4,4-dimethylpiperidin-1-yl)methyl]imidazo[1,2-a]pyridin-2-yl}methyl)-4-oxo-4H-pyrido[1,2-a]pyrimidine-2-carboxamide] was run?
The IC50 was 12.4 nM.

What about the IC50 [2] of the same molecule?
The IC50 was 2.46 µM.
